Structures can show the parent of a compound that is named as a salt. Where two headings read alike, the source gives them in different places.
Test system: LPS-induced TNF-α release in peripheral blood mononuclear cells (PBMCs)
Experiment: In vitro determination of PDE4 inhibitory activity in the PBMCs assay (LPS-induced TNF-α release)
Type: cell-based, human
Details: PBMC, human PBMCs, LPS 3 ng/ml, 18 hours, read-out: PDE4 inhibition (IC50, 50% inhibition of LPS-induced TNF-α release)
Protocol: The assay, which is based on the known inhibitory activity exerted by PDE4 inhibitors on the lipopolyshaccarides (LPS)-induced tumour necrosis factor-alpha (TNF-α release in peripheral blood mononuclear cells (PBMCs), was performed according to a method previously described (Hatzelmann A et al., J. Pharmacol. Exp. Ther., 2001; 297:267-279; and Draheim R et al., J. Pharmacol. Exp. Ther., 2004; 308:555-563, which are incorporated herein by reference in their entireties). Cryopreserved human PBMCs, (100 l/well) were incubated in 96-well plates (10^5 cells/well), for 30 minutes, in the presence or absence (50 microl) of the test compounds whose concentrations ranged from 10^−12 M to 10^−6 M or from […] to 10^−7 M. Subsequently, LPS (3 ng/ml) was added.
After 18 hours of incubation at 37° C. in a humidified incubator under an atmosphere of 95% air and 5% CO2, culture medium was collected and TNF-α measured by ELISA. The results of the tested compounds, representatives of the invention, expressed as mean±95% confidence limits of the molar concentration of the test compound producing 50% inhibition of LPS-induced TNF-α release (IC50) are shown in the following Table: […]

Structure (SMILES) | IC50 (TNF-α by ELISA) [nM] | IC50 (compounds of formula (II)) [nM]
NCc1cccc(C(=O)N2CCS[C@H]2C(=O)O[C@@H](Cc2c(Cl)c[n+]([O-])cc2Cl)c2ccc(OC(F)F)c(OCC3CC3)c2)c1 [Compound 21, 4-((S)-2-((S)-3-(3-(aminomethyl)benzoyl)thiazolidine-2-carbonyloxy)-2-(3-(cyclopropylmethoxy)-4-(difluoromethoxy)phenyl)ethyl)-3,5-dichloropyridine 1-oxide] | 1 to 10 | –
Cc1cc(F)ccc1S(=O)(=O)N1CCSC1C(=O)O[C@@H](Cc1c(Cl)c[n+]([O-])cc1Cl)c1ccc(OC(F)F)c(OCC2CC2)c1 (stereo partly drawn) [Compound 69, 3,5-dichloro-4-((2S)-2-(3-(cyclopropylmethoxy)-4-(difluoromethoxy)phenyl)-2-(3-(4-fluoro-2-methylphenylsulfonyl)thiazolidine-2-carbonyloxy)ethyl)pyridine 1-oxide] | 0.1 to 1 | –
COc1ccc(S(=O)(=O)N2CCSC2C(=O)O[C@@H](Cc2c(Cl)c[n+]([O-])cc2Cl)c2ccc(OC(F)F)c(OCC3CC3)c2)cc1C(=O)N1CCOCC1 (stereo partly drawn) [Compound 128, 3,5-dichloro-4-((2S)-2-(3-(cyclopropylmethoxy)-4-(difluoromethoxy)phenyl)-2-(3-(4-methoxy-3-(morpholine-4-carbonyl)phenylsulfonyl)thiazolidine-2-carbonyloxy)ethyl)pyridine 1-oxide] | < 0.1 | –
COc1ccc(S(=O)(=O)N2CCCC[C@H]2C(=O)O[C@@H](Cc2c(Cl)c[n+]([O-])cc2Cl)c2ccc(OC(F)F)c(OCC3CC3)c2)cc1C(=O)N(C)C [Compound 129, 3,5-dichloro-4-((S)-2-(3-(cyclopropylmethoxy)-4-(difluoromethoxy)phenyl)-2-((S)-1-(3-(dimethylcarbamoyl)-4-methoxyphenylsulfonyl)piperidine-2-carbonyloxy)ethyl)pyridine 1-oxide] | < 0.1 | –
CN(C)C(=O)c1cccc(S(=O)(=O)N2CCCC[C@@H]2C(=O)O[C@@H](Cc2c(Cl)c[n+]([O-])cc2Cl)c2ccc(OC(F)F)c(OCC3CC3)c2)c1 [Compound 83, 3,5-dichloro-4-((S)-2-(3-(cyclopropylmethoxy)-4-(difluoromethoxy)phenyl)-2-((R)-1-(3-(dimethylcarbamoyl)phenylsulfonyl)piperidine-2-carbonyloxy)ethyl)pyridine 1-oxide] | < 0.1 | –
CNC(=O)c1cc(S(=O)(=O)N2CCS[C@H]2C(=O)O[C@@H](Cc2c(Cl)c[n+]([O-])cc2Cl)c2ccc(OC(F)F)c(OCC3CC3)c2)cn1C [Compound 241, 3,5-dichloro-4-((S)-2-(3-(cyclopropylmethoxy)-4-(difluoromethoxy)phenyl)-2-((S)-3-(1-methyl-5-(methylcarbamoyl)-1H-pyrrol-3-ylsulfonyl)thiazolidine-2-carbonyloxy)ethyl)pyridine 1-oxide] | < 0.1 | –
Cn1ccnc1S(=O)(=O)N1CCSC1C(=O)O[C@@H](Cc1c(Cl)c[n+]([O-])cc1Cl)c1ccc(OC(F)F)c(OCC2CC2)c1 (stereo partly drawn) [Compound 64, 3,5-dichloro-4-((2S)-2-(3-(cyclopropylmethoxy)-4-(difluoromethoxy)phenyl)-2-(3-(1-methyl-1H-imidazol-2-ylsulfonyl)thiazolidine-2-carbonyloxy)ethyl)pyridine 1-oxide] | < 0.1 | –
NS(=O)(=O)c1cccc(S(=O)(=O)N2CCSC2C(=O)O[C@@H](Cc2c(Cl)c[n+]([O-])cc2Cl)c2ccc(OC(F)F)c(OCC3CC3)c2)c1 (stereo partly drawn) [Compound 59, 3,5-dichloro-4-((2S)-2-(3-(cyclopropylmethoxy)-4-(difluoromethoxy)phenyl)-2-(3-(3-sulfamoylphenylsulfonyl)thiazolidine-2-carbonyloxy)ethyl)pyridine 1-oxide] | < 0.1 | –
O=C(O[C@@H](Cc1c(Cl)c[n+]([O-])cc1Cl)c1ccc(OC(F)F)c(OCC2CC2)c1)[C@@H]1SCCN1S(=O)(=O)c1ccoc1 [Compound 96, 3,5-dichloro-4-((S)-2-(3-(cyclopropylmethoxy)-4-(difluoromethoxy)phenyl)-2-((S)-3-(furan-3-ylsulfonyl)thiazolidine-2-carbonyloxy)ethyl)pyridine 1-oxide] | < 0.1 | –
CN1CCOc2ccc(S(=O)(=O)N3CSC[C@H]3C(=O)O[C@@H](Cc3c(Cl)c[n+]([O-])cc3Cl)c3ccc(OC(F)F)c(OCC4CC4)c3)cc21 [Compound 252, 3,5-dichloro-4-((S)-2-(3-(cyclopropylmethoxy)-4-(difluoromethoxy)phenyl)-2-((R)-3-(4-methyl-3,4-dihydro-2H-benzo[b][1,4]oxazin-6-ylsulfonyl)thiazolidine-4-carbonyloxy)ethyl)pyridine 1-oxide] | < 0.1 | –
Cn1ccnc1S(=O)(=O)N1CCS[C@H]1C(=O)O[C@@H](Cc1c(Cl)cncc1Cl)c1ccc(OC(F)F)c(OCC2CC2)c1 [Compound 243, (S)-((S)-1-(3-(cyclopropylmethoxy)-4-(difluoromethoxy)phenyl)-2-(3,5-dichloropyridin-4-yl)ethyl) 3-(1-methyl-1H-imidazol-2-ylsulfonyl)thiazolidine-2-carboxylate] | 0.1 to 1 | –
NC(=O)c1ccc(C(=O)N2CCS[C@H]2C(=O)O[C@@H](Cc2c(Cl)c[n+]([O-])cc2Cl)c2ccc(OC(F)F)c(OCC3CC3)c2)cc1 [Compound 37, 4-((S)-2-((S)-3-(4-carbamoylbenzoyl)thiazolidine-2-carbonyloxy)-2-(3-(cyclopropylmethoxy)-4-(difluoromethoxy)phenyl)ethyl)-3,5-dichloropyridine 1-oxide] | < 0.1 | –
COc1cc([C@H](Cc2c(Cl)c[n+]([O-])cc2Cl)OC(=O)[C@@H]2SCCN2S(=O)(=O)c2cccc(C(=O)N(C)C)c2)ccc1OC(F)F [Compound 299, 3,5-dichloro-4-((S)-2-(4-(difluoromethoxy)-3-methoxyphenyl)-2-((S)-3-(3-(dimethylcarbamoyl)phenylsulfonyl)thiazolidine-2-carbonyloxy)ethyl)pyridine 1-oxide] | < 0.1 | –
CS(=O)(=O)N(CCN1CCOCC1)c1cc(OCC2CC2)cc(C(=O)N2CCSC2C(=O)O[C@@H](Cc2c(Cl)c[n+]([O-])cc2Cl)c2ccc(OC(F)F)c(OCC3CC3)c2)c1 (stereo partly drawn) [Compound 49, 3,5-dichloro-4-((2S)-2-(3-(cyclopropylmethoxy)-4-(difluoromethoxy)phenyl)-2-(3-(3-(cyclopropylmethoxy)-5-(N-(2-morpholinoethyl)methylsulfonamido)benzoyl)thiazolidine-2-carbonyloxy)ethyl)pyridine 1-oxide formate] | 0.1 to 1 | –
Cc1ccc(S(=O)(=O)N2CCSC2C(=O)O[C@@H](Cc2c(Cl)c[n+]([O-])cc2Cl)c2ccc(OC(F)F)c(OCC3CC3)c2)c(C)c1 (stereo partly drawn) [Compound 61, 3,5-dichloro-4-((2S)-2-(3-(cyclopropylmethoxy)-4-(difluoromethoxy)phenyl)-2-(3-(2,4-dimethylphenylsulfonyl)thiazolidine-2-carbonyloxy)ethyl)pyridine 1-oxide] | 0.1 to 1 | –
Cc1nn(C)c2ncc(S(=O)(=O)N3CCSC3C(=O)O[C@@H](Cc3c(Cl)c[n+]([O-])cc3Cl)c3ccc(OC(F)F)c(OCC4CC4)c3)cc12 (stereo in doubt) [Compound 240, 3,5-dichloro-4-((S)-2-(3-(cyclopropylmethoxy)-4-(difluoromethoxy)phenyl)-2-((S)-3-(1,3-dimethyl-1H-pyrazolo[3,4-b]pyridin-5-ylsulfonyl)thiazolidine-2-carbonyloxy)ethyl)pyridine 1-oxide] | < 0.1 | –
O=C(O[C@@H](Cc1c(Cl)c[n+]([O-])cc1Cl)c1ccc(OC(F)F)c(OCC2CC2)c1)[C@H]1CCCCN1 [Compound 9] | – | 1 to 10
O=C(O[C@@H](Cc1c(Cl)c[n+]([O-])cc1Cl)c1ccc(OC(F)F)c(OCC2CC2)c1)[C@@H]1CCCCN1S(=O)(=O)c1cccnc1 [Compound 99, 3,5-dichloro-4-((S)-2-(3-(cyclopropylmethoxy)-4-(difluoromethoxy)phenyl)-2-((S)-1-(pyridin-3-ylsulfonyl)piperidine-2-carbonyloxy)ethyl)pyridine 1-oxide] | 1 to 10 | –
CN1C(=O)Cc2cc(S(=O)(=O)N3CCS[C@H]3C(=O)O[C@@H](Cc3c(Cl)c[n+]([O-])cc3Cl)c3ccc(OC(F)F)c(OCC4CC4)c3)ccc21 [Compound 210, 3,5-dichloro-4-((S)-2-(3-(cyclopropylmethoxy)-4-(difluoromethoxy)phenyl)-2-((S)-3-(1-methyl-2-oxoindolin-5-ylsulfonyl)thiazolidine-2-carbonyloxy)ethyl)pyridine 1-oxide] | < 0.1 | –
Nc1ccc(S(=O)(=O)N2CSC[C@H]2C(=O)O[C@@H](Cc2c(Cl)c[n+]([O-])cc2Cl)c2ccc(OC(F)F)c(OCC3CC3)c2)cc1 [Compound 138, 4-((S)-2-((R)-3-(4-aminophenylsulfonyl)thiazolidine-4-carbonyloxy)-2-(3-(cyclopropylmethoxy)-4-(difluoromethoxy)phenyl)ethyl)-3,5-dichloropyridine 1-oxide] | 0.1 to 1 | –
O=C(O[C@@H](Cc1c(Cl)c[n+]([O-])cc1Cl)c1ccc(OC(F)F)c(OCC2CC2)c1)C1SCCN1S(=O)(=O)c1cccc(Cl)c1 (stereo partly drawn) [Compound 63, 3,5-dichloro-4-((2S)-2-(3-(3-chlorophenylsulfonyl)thiazolidine-2-carbonyloxy)-2-(3-(cyclopropylmethoxy)-4-(difluoromethoxy)phenyl)ethyl)pyridine 1-oxide] | 0.1 to 1 | –

Reference: patent publication US9931327B2, “Derivatives of 1-phenyl-2-pyridinyl alkyl alcohols as phosphodiesterase inhibitors” (Chiesi Farmaceutici S.p.A., priority 2011, dated 2018)
